Experimental data reported in US20080045535A1, “Prokineticin 2 receptor antagonists” (priority 2005, published 2008).
Where “and” joins values, the source holds several entries; their conditions need not be identical. Identical values can stand only once.

Molecular target: T1, HEK 293 GPR73 (prokineticin 1 receptor) expressing cells (Homo sapiens, UniProt Q8TCW9)
T1 construct: expressed in transfected cells; host or cells: HEK 293
Experiment: PK1 functional assay: screening for PK1 antagonists on the FLIPR (calcium fluorescence)
Format: cell-based
Details: HEK 293 GPR73 cells; for inhibition at 10 µM: HEK293, compound at 10 μM, read-out: Ca^2+ Mobilization % Inh @10 μM; for inhibition at 10 µM / Ca^2+ Mobilization % Inh @10 μM: multiple values = repeat tests; for IC50: PK1 ligand at EC50, multiple values = repeat tests, read-out: Ca^2+ Mobilization IC50; for Ca^2+ Mobilization % Inh @10 μM: compound at 10 μM
Description: At a time of 24 h prior to running the assay, in cell culture media (DMEM containing high Glucose and L-glutamine, 10% FBS, 1% Pen/Streptomycin, 1% Sodium Pyruvate, 20 mM HEPES, Zeocin 200 mg/L), 100 μL of 1.3*10^6/ml HEK 293 GPR73 (prokineticin 1 receptor) expressing cells were plated in a 96 well poly-d-lysine coated plate (Costar), and incubated at 37 C and 5% CO2. On the day in which the assay was run, the media was removed and 200 μL of 5× Calcium Plus Dye (Molecular Devices) which was previously resuspended with 200 mL of assay buffer [HBSS w/Ca^2+ and Mg^2+ w/o phenol red, 20 mM HEPES, 0.1% BSA, 10 mL probenecid (710 mg probenecid in 5 mL of 1N NaOH, to which was then added 5 mL HBSS containing 20 mM HEPES)] was added to each well of the 96-well plate. The plate was incubated at 37 C and 5% CO2 for 30 min in dark. The plate was removed and allowed to reach RT for 15 min in the dark. The assay was then run on the FLIPR. […] Baseline is described as the amount of relative fluorescence read when buffer alone is added to cells. Baseline was subtracted from all wells. Percent of control was calculated as follows:
(Baseline subtracted well value is divided by baseline subtracted max value)*100.
Percent inhibition is 100 minus the percent of control value.
IC50 values were calculated using GraphPad Prism.
Table 2 includes data generated from the PK1 functional assay described in Example 2.

T1 sequence (Q8TCW9 whole entry): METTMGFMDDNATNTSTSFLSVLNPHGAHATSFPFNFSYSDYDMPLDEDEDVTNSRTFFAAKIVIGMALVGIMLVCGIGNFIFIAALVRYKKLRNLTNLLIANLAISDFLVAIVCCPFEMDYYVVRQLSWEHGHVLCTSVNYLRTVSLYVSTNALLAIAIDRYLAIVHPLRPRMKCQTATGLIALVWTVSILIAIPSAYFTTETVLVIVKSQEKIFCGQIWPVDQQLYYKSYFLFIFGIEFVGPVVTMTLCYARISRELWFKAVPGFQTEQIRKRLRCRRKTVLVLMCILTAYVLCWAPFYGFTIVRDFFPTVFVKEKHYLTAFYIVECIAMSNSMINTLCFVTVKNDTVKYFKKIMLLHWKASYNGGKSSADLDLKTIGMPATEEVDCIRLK

| Structure (SMILES) | inhibition at 10 µM [%] | IC50 | Ca^2+ Mobilization % Inh @10 μM | Ca^2+ Mobilization % Inh @10 μM (10 µM) |
| --- | --- | --- | --- | --- |
| C=CCNC(=N)NCCNc1nc(=O)n(Cc2ccc(Cl)c(Cl)c2)c(=O)n1Cc1ccc(OC)cc1 [Cpd 70] | 101 | 9 nM and 7 nM | 101, 101% |  |
| COc1ccc(Cn2c(NCCNC(=N)Nc3ccccc3)nc(=O)n(Cc3ccc(Cl)c(Cl)c3)c2=O)cc1 [Cpd 71] | 100 | 12 nM and 7 nM |  | 99% |
| COc1ccc(Cn2c(NCCNC(=N)Nc3ccc(OC)cc3)nc(=O)n(Cc3ccc(Cl)c(Cl)c3)c2=O)cc1 [Cpd 72] | 100 | 64 nM |  |  |
| COc1ccc(Cn2c(NCCNC(=N)Nc3ccc(Cl)cc3)nc(=O)n(Cc3ccc(Cl)c(Cl)c3)c2=O)cc1 [Cpd 73] | 100 | 39 nM |  |  |
| COc1ccc(Cn2c(NCCNC(=N)Nc3ccc(C(F)(F)F)cc3)nc(=O)n(Cc3ccc(Cl)c(Cl)c3)c2=O)cc1 [Cpd 74] | 100 | 138 nM |  |  |
| COc1ccc(Cn2c(NCCNC(=N)Nc3cccnc3)nc(=O)n(Cc3ccc(Cl)c(Cl)c3)c2=O)cc1 [Cpd 75] | 101 | 36 nM |  |  |
| COc1ccc(Cn2c(NCCNC(=N)Nc3ccc(C(C)=O)cc3)nc(=O)n(Cc3ccc(Cl)c(Cl)c3)c2=O)cc1 [Cpd 76] | 93 | 230 nM |  |  |
| COc1ccc(Cn2c(NCCNC(=N)N)nc(=O)n(Cc3ccoc3)c2=O)cc1 [Cpd 77] | 81 | 789 nM |  |  |
| COc1ccc(Cn2c(NCCNC(=N)N)nc(=O)n(Cc3cccs3)c2=O)cc1 [Cpd 78] | 89 | 300 nM |  |  |
| COc1ccc(Cn2c(NCCNC(=N)N)nc(=O)n(C(C)c3ccc(OC)cc3)c2=O)cc1 (stereo not shown) [Cpd 79] | 101 | 71 nM |  |  |
| COc1ccc(Cn2c(NCCNC(=N)N)nc(=O)n(Cc3ccc(OC(F)F)cc3)c2=O)cc1 [Cpd 80] | 100 | 71 nM |  |  |
| COc1ccc(Cn2c(NCCNC(=N)N)cc(=O)n(Cc3ccccc3)c2=O)cc1 [Cpd 81, N-{2-[1-Benzyl-3-(4-methoxy-benzyl)-2,6-dioxo-1,2,3,6-tetrahydro-pyrimidin-4-ylamino]-ethyl}-guanidine] | 84 | 452 nM |  |  |
| C=CCC(c1ccc(OC)cc1)n1c(=O)nc(NCCNC(=N)N)n(Cc2ccc(OC)cc2)c1=O (stereo not shown) [Cpd 82] | 84 | 498 nM |  |  |
| C=CCC(c1ccc(Cl)cc1)n1c(=O)nc(NCCNC(=N)N)n(Cc2ccc(OC)cc2)c1=O (stereo not shown) [Cpd 83] | 80 | 988 nM |  |  |
| COc1ccc(Cn2c(NCCNC(=N)N)cc(=O)n(Cc3ccc(OC)cc3)c2=O)cc1 [Cpd 84, N-{2-[1,3-Bis-(4-methoxy-benzyl)-2,6-dioxo-1,2,3,6-tetrahydro-pyrimidin-4-ylamino]-ethyl}-guanidine] | 99 | 42 nM |  |  |
| COc1ccc(Cn2c(=O)nc(NCCNC(=N)N)n(Cc3ccc(OC)nc3)c2=O)cc1 [Cpd 85] | 96 | 51 nM |  |  |
| COc1ccc(Cn2c(=O)nc(NCCNC(=N)N)n(CC3CCC(OC)CC3)c2=O)cc1 (stereo not shown) [Cpd 86] | 61 | 3260 nM |  |  |
| N=C(N)NCCNc1nc(=O)n(Cc2ccc(F)cc2)c(=O)n1Cc1ccc([N+](=O)[O-])cc1 [Cpd 87] | 38 | > 10000 nM |  |  |
| COc1ccc(Cn2c(NCCNC(=N)NCCN3CCOCC3)nc(=O)n(Cc3ccc(F)cc3)c2=O)cc1 [Cpd 88] | 59 | 4740 nM |  |  |
| COc1ccc(Cn2c(NCCNC(=N)NCCCN3CCOCC3)nc(=O)n(Cc3ccc(F)cc3)c2=O)cc1 [Cpd 89] | 46 | 9070 nM |  |  |
| COc1ccc(Cn2c(NCCN(C(=N)N)c3ccc(C#N)cc3)nc(=O)n(Cc3ccc(F)cc3)c2=O)cc1 [Cpd 90, N-(4-Cyano-phenyl)-N-{2-[5-(4-fluoro-benzyl)-1-(4-methoxy-benzyl)-4,6-dioxo-1,4,5,6-tetrahydro-[1,3,5]triazin-2-ylamino]-ethyl}-guanidine] |  | 31 nM and 43 nM |  | 100% and 101% |
| COc1ccc(Cn2c(NCCNC(=N)Nc3ccc([N+](=O)[O-])cc3)nc(=O)n(Cc3ccc(F)cc3)c2=O)cc1 [Cpd 91] | 101 | 54 nM |  |  |

| Structure (SMILES) | inhibition at 10 µM [%] | IC50 | Ca^2+ Mobilization % Inh @10 μM | Ca^2+ Mobilization % Inh @10 μM (10 µM) |
| --- | --- | --- | --- | --- |
| COc1ccc(Cn2c(NCCNC(=N)Nc3ccc4c(c3)OCO4)nc(=O)n(Cc3ccc(F)cc3)c2=O)cc1 [Cpd 92] | 97 | 40 nM |  |  |
| COc1ccc(Cn2c(NCCNC(=N)NN)nc(=O)n(Cc3ccc(F)cc3)c2=O)cc1 [Cpd 93, N-{2-[5-(4-Fluoro-benzyl)-1-(4-methoxy-benzyl)-4,6-dioxo-1,4,5,6-tetrahydro-[1,3,5]triazin-2-ylamino]-ethyl}-AN-amino-guanidine] | 92 | 227 nM |  |  |
| COc1ccc(Cn2c(NCCNC(=N)N)nc(=O)n(Cc3cccc([N+](=O)[O-])c3)c2=O)cc1 [Cpd 94] | 60 | 4800 nM |  |  |
| COc1ccc(Cn2c(NCCNC(=N)N)nc(=O)n(Cc3ccc([N+](=O)[O-])cc3)c2=O)cc1 [Cpd 95, N-{2-[1-(4-Methoxy-benzyl)-5-(4-nitro-benzyl)-4,6-dioxo-1,4,5,6-tetrahydro-[1,3,5]triazin-2-ylamino]-ethyl}-guanidine] | 96 | 84 nM |  |  |
| COc1ccc(Cn2c(NCCNC(=N)N)nc(=O)n(Cc3cccc(N)c3)c2=O)cc1 [Cpd 96] | 43 | > 10000 nM |  |  |
| COc1ccc(Cn2c(NCCNC(=N)N)nc(=O)n(Cc3ccc(C#N)cc3)c2=O)cc1 [Cpd 97] | 86 | 318 nM |  |  |
| COc1ccc(Cn2c(NCCNC(=N)N)nc(=O)n(Cc3cccc(C#N)c3)c2=O)cc1 [Cpd 98] | 34 | > 10000 nM |  |  |
| [H]/N=C(\N)NCCNc1nc(=O)n(Cc2ccc(C(=O)OC)cc2)c(=O)n1Cc1ccc(OC)cc1 [Cpd 99] | 73 | 794 nM |  |  |
| COC(=O)c1cccc(Cn2c(=O)nc(NCCNC(=N)N)n(Cc3ccc(OC)cc3)c2=O)c1 [Cpd 100] | 48 | 8820 nM |  |  |
| COc1ccc(Cn2c(NCCNC(=N)N)nc(=O)n(Cc3ccc(C(=O)O)cc3)c2=O)cc1 [Cpd 101, 4-[4-(2-Guanidino-ethylamino)-3-(4-methoxy-benzyl)-2,6-dioxo-3,6-dihydro-2H-[1,3,5]triazin-1-ylmethyl]-benzoic acid] | 33 | > 10000 nM |  |  |
| COc1ccc(Cn2c(NCC(C)(C)NC(=N)N)nc(=O)n(Cc3ccc(Cl)c(Cl)c3)c2=O)cc1 [Cpd 102] | 68 | 3490 nM |  |  |
| COc1ccc(Cn2c(NCCNC(=N)Nc3ccc(Br)cc3)nc(=O)n(Cc3ccc(F)cc3)c2=O)cc1 [Cpd 103] | 99 | 23 nM |  |  |
| COc1ccc(Cn2c(NCCN(C(=N)N)c3ccccn3)nc(=O)n(Cc3ccc(F)cc3)c2=O)cc1 [Cpd 104, N-{2-[5-(4-Fluoro-benzyl)-1-(4-methoxy-benzyl)-4,6-dioxo-1,4,5,6-tetrahydro-[1,3,5]triazin-2-ylamino]-ethyl}-N-pyridin-2-yl-guanidine] |  | 11 nM |  | 99% and 102% |
| COc1ccc(Cn2c(NCCNC(=N)NCCc3ccccn3)nc(=O)n(Cc3ccc(F)cc3)c2=O)cc1 [Cpd 105] |  | 89 nM | 100% |  |
| CCOC(=O)c1ccc(NC(=N)NCCNc2nc(=O)n(Cc3ccc(F)cc3)c(=O)n2Cc2ccc(OC)cc2)cc1 [Cpd 106] | 89 | 508 nM |  |  |
| COc1ccc(Cn2c(NCCNC(=N)Nc3ccc(F)cc3F)nc(=O)n(Cc3ccc(F)cc3)c2=O)cc1 [Cpd 107] | 101 | 12 nM |  |  |
| CCCCCCCCCCNC(=N)NCCNc1nc(=O)n(Cc2ccc(F)cc2)c(=O)n1Cc1ccc(OC)cc1 [Cpd 108] | 89 | 369 nM |  |  |
| COc1ccc(Cn2c(NCCNC(=N)N)nc(=O)n(Cc3ccc(OC(C)(C)C)cc3)c2=O)cc1 [Cpd 109] |  | 129 nM | 99% |  |
| COc1ccc(Cn2c(NCCNC(=N)N)nc(=O)n(Cc3ccc(O)cc3)c2=O)cc1 [Cpd 110, N-{2-[5-(4-Hydroxy-benzyl)-1-(4-methoxy-benzyl)-4,6-dioxo-1,4,5,6-tetrahydro-[1,3,5]triazin-2-ylamino]-ethyl}-guanidine] | 81 | 1160 nM |  |  |
| COc1ccc(Cn2c(NCCNC(=N)N)nc(=O)n(Cc3csc(Cl)n3)c2=O)cc1 [Cpd 111] | 100 | 154 nM |  |  |
| COc1ccc(Cn2c(NCCNC(=N)N)nc(=O)n(Cc3cc4ccccc4o3)c2=O)cc1 [Cpd 112] | 101 | 26 nM |  |  |
| COc1ccc(Cn2c(NCCN(C)C(=N)N)nc(=O)n(Cc3ccc(Cl)c(Cl)c3)c2=O)cc1 [Cpd 113] | 101 | 11 nM and 24 nM and 46 nM and 76 nM |  | 100% and 102% |
